Measured values from ChEMBL document CHEMBL5576158, “Recent insights of PROTAC developments in inflammation-mediated and autoimmune targets: a critical review” (RSC Med Chem, 2024).

Key:
[1] = target: Receptor-interacting serine/threonine-protein kinase 2 (Homo sapiens) (UniProt O43353); assay: PROTAC activity at IAP/RIPK2 in human THP-1 cells assessed as […] by Western blot analysis
[2] = target: T1, Macrophage migration inhibitory factor (Homo sapiens, UniProt P14174); assay: Binding affinity to MIF in human A549 cells assessed as inhibition constant; assay type: cell-based
T1 sequence (P14174 whole entry): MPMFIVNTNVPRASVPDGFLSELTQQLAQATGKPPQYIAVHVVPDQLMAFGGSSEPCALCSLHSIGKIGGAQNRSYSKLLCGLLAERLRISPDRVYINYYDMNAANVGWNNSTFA

[3] = target: Protein cereblon/Macrophage migration inhibitory factor (Homo sapiens) (UniProt P14174+Q96SW2); assay: PROTAC activity at E3 ubiquitin ligase/MIF in human A549 cells assessed as induction of MIF degradation by Western blot analysis; assay type: cell-based
Chain of Protein cereblon/Macrophage migration inhibitory factor (Homo sapiens) (Q96SW2 whole entry partner, one chain of several): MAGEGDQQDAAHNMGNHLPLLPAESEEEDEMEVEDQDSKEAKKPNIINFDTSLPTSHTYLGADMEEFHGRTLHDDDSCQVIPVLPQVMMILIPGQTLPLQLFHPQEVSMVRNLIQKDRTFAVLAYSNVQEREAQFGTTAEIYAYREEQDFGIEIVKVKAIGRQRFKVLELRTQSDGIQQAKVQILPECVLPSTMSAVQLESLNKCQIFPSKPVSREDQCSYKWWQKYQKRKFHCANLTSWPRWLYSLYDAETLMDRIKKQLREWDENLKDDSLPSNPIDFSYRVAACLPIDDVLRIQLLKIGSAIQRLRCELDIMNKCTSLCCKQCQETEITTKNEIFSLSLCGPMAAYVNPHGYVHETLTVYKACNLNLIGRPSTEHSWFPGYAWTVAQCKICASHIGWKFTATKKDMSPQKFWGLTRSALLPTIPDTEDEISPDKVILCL

[4] = target: Protein cereblon/Histone deacetylase 8 (Homo sapiens, UniProt Q9BY41+Q96SW2); assay: PROTAC activity at CRBN/HDAC8 in human Jurkat T cells assessed as induction of degradation of HDAC8 by Western blot analysis; assay type: cell-based
[5] = target: von Hippel-Lindau disease tumor suppressor/Receptor-interacting serine/threonine-protein kinase 2 (Homo sapiens) (UniProt O43353+P40337); assay: PROTAC activity at VHL/RIPK2 in human THP-1 cells assessed as RIPK2 degradation by measuring maximal efficacy at 10 nM measured after 16 hrs by Western blot analysis relative to control; assay type: cell-based
Chain of von Hippel-Lindau disease tumor suppressor/Receptor-interacting serine/threonine-protein kinase 2 (Homo sapiens) (O43353 whole entry, looked up): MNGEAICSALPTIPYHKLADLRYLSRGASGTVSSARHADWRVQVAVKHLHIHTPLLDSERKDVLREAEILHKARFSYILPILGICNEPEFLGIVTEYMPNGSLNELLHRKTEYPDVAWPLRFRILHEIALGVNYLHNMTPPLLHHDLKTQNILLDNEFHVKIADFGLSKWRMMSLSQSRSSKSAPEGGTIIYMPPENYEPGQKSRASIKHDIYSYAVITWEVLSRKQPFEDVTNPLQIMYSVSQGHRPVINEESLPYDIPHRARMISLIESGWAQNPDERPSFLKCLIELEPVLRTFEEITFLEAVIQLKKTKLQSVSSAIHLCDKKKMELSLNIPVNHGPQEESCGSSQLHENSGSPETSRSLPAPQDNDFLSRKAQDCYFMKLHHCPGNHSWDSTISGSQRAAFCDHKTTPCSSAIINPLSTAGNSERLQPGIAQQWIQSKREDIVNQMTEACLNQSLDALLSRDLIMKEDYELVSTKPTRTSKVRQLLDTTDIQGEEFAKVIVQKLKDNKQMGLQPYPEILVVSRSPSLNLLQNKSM
Chain of von Hippel-Lindau disease tumor suppressor/Receptor-interacting serine/threonine-protein kinase 2 (Homo sapiens) (P40337 whole entry, looked up): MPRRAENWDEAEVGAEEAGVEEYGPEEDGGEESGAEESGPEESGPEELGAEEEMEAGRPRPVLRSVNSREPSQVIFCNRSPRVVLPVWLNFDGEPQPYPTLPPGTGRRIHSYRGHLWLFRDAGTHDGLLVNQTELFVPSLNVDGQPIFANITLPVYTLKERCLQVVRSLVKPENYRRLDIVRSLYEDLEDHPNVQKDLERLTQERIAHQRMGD

[6] = Cytotoxicity against mouse RAW264.7 cells assessed as reduction in cell growth; assay type: toxicity, cell-based
[7] = target: von Hippel-Lindau disease tumor suppressor/Tyrosine-protein kinase BTK (Homo sapiens, UniProt Q06187+P40337, C481S); assay: PROTAC activity at VHL/BTK C481S mutant in human THP-1 cells assessed as induction of BTK degradation incubated for 24 hrs by immunoblotting analysis; assay type: cell-based
Chain of von Hippel-Lindau disease tumor suppressor/Tyrosine-protein kinase BTK (P40337 whole entry, stated change not applied): as the sequence (P40337 whole entry, looked up) above
Chain of von Hippel-Lindau disease tumor suppressor/Tyrosine-protein kinase BTK (Q06187 2-659 C481S limits assumed, stated change not applied): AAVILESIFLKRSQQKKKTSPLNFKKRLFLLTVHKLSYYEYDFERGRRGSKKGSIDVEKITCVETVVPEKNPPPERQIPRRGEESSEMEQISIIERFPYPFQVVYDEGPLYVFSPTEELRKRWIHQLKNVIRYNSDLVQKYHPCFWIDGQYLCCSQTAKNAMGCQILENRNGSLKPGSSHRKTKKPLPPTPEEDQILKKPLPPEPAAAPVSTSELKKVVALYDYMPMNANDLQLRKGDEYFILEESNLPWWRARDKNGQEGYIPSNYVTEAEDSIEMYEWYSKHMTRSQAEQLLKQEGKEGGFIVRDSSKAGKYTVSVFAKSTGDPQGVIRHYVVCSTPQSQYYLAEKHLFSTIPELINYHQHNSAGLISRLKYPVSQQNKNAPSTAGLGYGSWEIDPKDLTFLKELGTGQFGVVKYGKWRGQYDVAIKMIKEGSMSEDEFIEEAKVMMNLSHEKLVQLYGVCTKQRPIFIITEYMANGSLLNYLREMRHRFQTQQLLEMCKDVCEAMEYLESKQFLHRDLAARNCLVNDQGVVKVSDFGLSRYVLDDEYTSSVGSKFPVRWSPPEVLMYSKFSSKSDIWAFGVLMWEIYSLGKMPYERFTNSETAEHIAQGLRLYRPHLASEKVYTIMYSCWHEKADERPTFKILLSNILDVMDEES

[8] = target: Protein cereblon/Protein deacetylase HDAC6 (Homo sapiens, UniProt Q9UBN7+Q96SW2); assay: PROTAC activity at CRBN/HDAC6 in human MM1.S cells assessed as HDAC6 degradation incubated for 18 hrs by immunoblot analysis; assay type: cell-based
[9] = target: T2, Tyrosine-protein kinase ITK/TSK (Homo sapiens) (UniProt Q08881); assay: Degradation of ITK (unknown origin) at 1 uM relative to control
T2 sequence (whole entry): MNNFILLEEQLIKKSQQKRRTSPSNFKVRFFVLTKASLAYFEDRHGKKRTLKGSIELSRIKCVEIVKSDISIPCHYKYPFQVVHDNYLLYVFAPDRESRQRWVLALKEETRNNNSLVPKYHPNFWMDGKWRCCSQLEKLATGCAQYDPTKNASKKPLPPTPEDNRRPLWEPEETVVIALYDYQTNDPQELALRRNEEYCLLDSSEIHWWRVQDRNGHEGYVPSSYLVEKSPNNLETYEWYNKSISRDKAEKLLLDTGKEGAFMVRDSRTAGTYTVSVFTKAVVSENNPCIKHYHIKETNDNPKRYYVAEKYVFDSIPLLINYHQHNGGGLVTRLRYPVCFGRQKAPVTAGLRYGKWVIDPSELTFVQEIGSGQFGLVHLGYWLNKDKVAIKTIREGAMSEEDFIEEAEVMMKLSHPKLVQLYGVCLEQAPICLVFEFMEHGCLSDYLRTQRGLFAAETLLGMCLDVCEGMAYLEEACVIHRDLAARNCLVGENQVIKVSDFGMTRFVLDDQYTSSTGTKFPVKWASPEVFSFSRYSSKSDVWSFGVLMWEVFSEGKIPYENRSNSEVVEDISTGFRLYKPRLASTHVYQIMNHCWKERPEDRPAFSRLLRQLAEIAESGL

[10] = target: T3, Tyrosine-protein kinase ITK/TSK (Homo sapiens, UniProt Q08881); assay: Inhibition of ITK (unknown origin)
T3 sequence (Q08881 whole entry): T2 sequence (whole entry)

[11] = target: Protein cereblon/Indoleamine 2,3-dioxygenase 1 (Homo sapiens) (UniProt P14902+Q96SW2); assay: PROTAC activity against CRBN/IDO1 in human HeLa cells assessed as induction of IDO1 degradation at 2 uM incubated for 24 hrs by Western blot analysis relative to control; assay type: cell-based
[12] = target: T4, von Hippel-Lindau disease tumor suppressor/Interleukin-1 receptor-associated kinase 3 (Homo sapiens, UniProt Q9Y616+P40337); assay: PROTAC activity at IRAK3/VHL E3 ligase in human THP-1 cells assessed as induction of IRAK3 degradation by measuring maximal efficacy incubated for 24 hrs by Western blot analysis; assay type: cell-based
Target sequence in this assay (P40337 whole entry, looked up): as the sequence (P40337 whole entry, looked up) above
Target sequence in this assay (Q9Y616 whole entry, looked up): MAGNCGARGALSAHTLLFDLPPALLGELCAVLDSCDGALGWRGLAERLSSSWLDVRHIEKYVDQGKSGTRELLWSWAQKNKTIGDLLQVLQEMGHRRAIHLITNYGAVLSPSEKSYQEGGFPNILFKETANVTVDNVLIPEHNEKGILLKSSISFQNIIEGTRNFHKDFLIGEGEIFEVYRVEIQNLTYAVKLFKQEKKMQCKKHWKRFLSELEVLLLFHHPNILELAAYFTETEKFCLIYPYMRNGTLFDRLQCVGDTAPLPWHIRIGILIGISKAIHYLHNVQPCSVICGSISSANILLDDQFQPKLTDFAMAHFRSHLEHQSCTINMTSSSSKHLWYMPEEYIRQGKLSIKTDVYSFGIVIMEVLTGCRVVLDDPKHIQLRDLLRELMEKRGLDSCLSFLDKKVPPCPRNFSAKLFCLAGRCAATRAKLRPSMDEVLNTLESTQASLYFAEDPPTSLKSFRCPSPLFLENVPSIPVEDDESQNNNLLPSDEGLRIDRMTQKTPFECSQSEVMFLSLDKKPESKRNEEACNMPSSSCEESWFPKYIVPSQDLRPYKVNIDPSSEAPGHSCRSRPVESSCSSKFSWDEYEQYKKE

[13] = target: T4, von Hippel-Lindau disease tumor suppressor/Interleukin-1 receptor-associated kinase 3; assay: PROTAC activity at IRAK3/VHL E3 ligase in human THP-1 cells assessed as induction of IRAK3 degradation by Immuno-blot analysis; assay type: cell-based
[14] = target: Protein cereblon/Histone acetyltransferase KAT2A (Homo sapiens) (UniProt Q92830+Q96SW2); assay: PROTAC activity at GCN5/CRBN in human THP-1 cells assessed as induction of […] degradation by measuring maximal efficacy at 30 nM measured for 10 mins by Western blot analysis relative to control; assay type: cell-based
[15] = target: Protein cereblon/Histone acetyltransferase KAT2B (Homo sapiens) (UniProt Q92831+Q96SW2); assay: PROTAC activity at PCAF/CRBN in human THP-1 cells assessed as induction of PCAF degradation by measuring maximal efficacy at 30 nM measured for 10 mins by Western blot analysis relative to control; assay type: cell-based
[16] = target: Protein cereblon/Interleukin-1 receptor-associated kinase 4 (Homo sapiens, UniProt Q9NWZ3+Q96SW2); assay: PROTAC activity at CRBN/IRAK4 in human THP-1 cells assessed as induction of IRAK4 degradation by Immuno-blotting analysis; assay type: cell-based
Chain of Protein cereblon/Interleukin-1 receptor-associated kinase 4 (Q9NWZ3 whole entry): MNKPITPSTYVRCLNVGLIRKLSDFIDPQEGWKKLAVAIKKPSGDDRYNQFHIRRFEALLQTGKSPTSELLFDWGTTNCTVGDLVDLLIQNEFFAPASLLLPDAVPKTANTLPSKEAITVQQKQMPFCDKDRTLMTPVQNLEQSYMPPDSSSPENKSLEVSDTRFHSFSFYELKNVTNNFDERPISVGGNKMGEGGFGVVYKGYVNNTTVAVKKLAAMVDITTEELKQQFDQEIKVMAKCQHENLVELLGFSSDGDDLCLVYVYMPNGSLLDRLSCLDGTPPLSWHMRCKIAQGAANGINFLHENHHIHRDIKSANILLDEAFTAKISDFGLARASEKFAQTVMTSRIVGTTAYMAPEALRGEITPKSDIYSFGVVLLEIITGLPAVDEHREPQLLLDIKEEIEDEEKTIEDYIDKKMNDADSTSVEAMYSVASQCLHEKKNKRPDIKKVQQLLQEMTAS
Chain of Protein cereblon/Interleukin-1 receptor-associated kinase 4 (Q96SW2 whole entry): as the sequence (Q96SW2 whole entry partner, one chain of several) above

Chain of Receptor-interacting serine/threonine-protein kinase 2 (Homo sapiens) (O43353 whole entry, looked up): as the sequence (O43353 whole entry, looked up) above

CN[C@@H](C)C(=O)N[C@H](C(=O)N1CCC[C@H]1c1nc(C(=O)c2ccc(F)cc2)cs1)C1CCN(C(=O)c2cnc(N3CCN(CCOc4cc5ncnc(Nc6n[nH]c(C)c6C)c5cc4S(=O)(=O)C(C)(C)C)CC3)nc2)CC1 gave a pDC50 [1] of 7.9.

In the case of O=C1CCC(N2C(=O)c3cccc(NCCCC(=O)Nc4ccc(N5Cc6ccc(O)cc6OC5=O)cc4)c3C2=O)C(=O)N1 (centres undefined), the Ki [2] is reported as 55 nM.

For CN[C@H](C)C(=O)N[C@@H](C(=O)N1Cc2cc(OCCOCCOCCOCCOc3cc4nccc(Nc5ccc6scnc6c5)c4cc3S(=O)(=O)C(C)(C)C)ccc2C[C@H]1C(=O)N[C@H]1CCCc2ccccc21)C(C)(C)C, the pDC50 [1] was 9.4.

In the case of O=C1CCC(N2C(=O)c3cccc(NCCCCCCCC(=O)Nc4ccc(N5Cc6ccc(O)cc6OC5=O)cc4)c3C2=O)C(=O)N1 (centres undefined), the Emax [3] is reported as 91%.

For O=C1CCC(N2C(=O)c3cccc(NCCCCC(=O)Nc4ccc(N5Cc6ccc(O)cc6OC5=O)cc4)c3C2=O)C(=O)N1 (centres undefined), the Ki [2] was 86 nM and the Emax [3] was 21%.

In the case of O=C1CCC(N2C(=O)c3cccc(NCCCCCCCCCC(=O)Nc4ccc(N5Cc6ccc(O)cc6OC5=O)cc4)c3C2=O)C(=O)N1 (centres undefined), the Emax [3] is reported as 64%.

O=C1CCC(N2C(=O)c3ccc(NCCCCCCCCCCCNC(=O)c4cccc(SCc5cn(-c6cccc(C(=O)NO)c6)nn5)c4)cc3C2=O)C(=O)N1 (centres undefined) showed a DC50 [4] of 702 nM.

For Cc1ncsc1-c1ccc(CNC(=O)[C@@H]2C[C@@H](O)CN2C(=O)[C@@H](NC(=O)COCCOCCOCCOCCOc2cc3nccc(Nc4ccc5scnc5c4)c3cc2S(=O)(=O)C(C)(C)C)C(C)(C)C)cc1, the Emax [5] was 95%.

C=C1CC[C@H]2[C@@H](/C=C(\C)C(=O)[C@@]3(O)C[C@H](C)[C@H](O)[C@@H]3[C@H]1OCc1cn(CCOCCOCCOCCNc3cccc4c3C(=O)N(C3CCC(=O)NC3=O)C4=O)nn1)C2(C)C (some centres undefined) gave an IC50 [6] of 8340 nM.

Molecule CN[C@@H](C)C(=O)N[C@H](C(=O)N1C[C@@H](NC(=O)OCCOCCOCCOCCN2CCN(CCCC(=O)N3CCC[C@@H](n4nc(-c5ccc(Oc6ccccc6)cc5)c5c(N)ncnc54)C3)CC2)C[C@H]1C(=O)N[C@@H]1CCCc2ccccc21)C1CCCCC1 has a DC50 [7] of 200 nM.

With CCCCN(Cc1ccc(C(=O)O)cc1)C(=O)Nc1ccc(OCCCCCCCn2cc(CNCc3ccc(-c4cccc5c4CN(C4CCC(=O)NC4=O)C5=O)cc3)nn2)cc1 (centres undefined) the DC50 [8] was 1.9 nM.

COc1cc(C)c(Sc2cnc(NC(=O)c3ccc(N4CCN(CCCCCCNC(=O)COc5cccc6c5C(=O)N(C5CCC(=O)NC5=O)C6=O)CC4)cc3)s2)cc1C(=O)N1CCN(C(C)=O)CC1 (centres undefined) showed a degradation [9] greater than 90%, a pDC50 [1] of 9.4 and an IC50 [10] of 17.6 nM.

In the case of O=C1CCC(N2C(=O)c3cccc(NCCOCCOCCOCCOCCOCCOCCOCCNCCNc4nonc4/C(=N/O)Nc4ccc(F)c(Br)c4)c3C2=O)C(=O)N1 (centres undefined), the Emax [11] is reported as 93%.

Molecule CN1C(=O)CCC(N2C(=O)c3cccc(NCCCCCCCC(=O)Nc4ccc(N5Cc6ccc(O)cc6OC5=O)cc4)c3C2=O)C1=O (centres undefined) has an Emax [3] of 55%.

Cc1ncsc1-c1ccc([C@H](C)NC(=O)[C@@H]2C[C@@H](O)CN2C(=O)[C@@H](NC(=O)[C@H]2CC[C@H](C(=O)N3CCC(n4cc(-c5cnc(N)c(O[C@@H](C)c6c(Cl)ccc(F)c6Cl)c5)cn4)CC3)CC2)C(C)(C)C)cc1 gave an Emax [12] of 95% and a DC50 [13] of 94 nM.

CN1C[C@H](Nc2cnn(C)c(=O)c2Br)C[C@H](c2ccc(C(=O)N(C)CCCN(C)c3ccc(CCCOc4cccc5c4C(=O)N(C4CCC(=O)NC4=O)C5=O)cc3)cc2)C1 (some centres undefined) gave an Emax [14] of 80% and an Emax [15] of 80%.

Work on CC(C)Nc1cc(C(=O)N[C@H]2CC[C@@H](C(=O)NCCOCCNC(=O)COc3cccc4c3C(=O)N(C3CCC(=O)NC3=O)C4=O)CC2)nc(-n2ccc3cc(C#N)cnc32)c1 (some centres undefined) yielded a DC50 [16] of 405 nM.

O=C1CCC(N2C(=O)c3cccc(NCCCCCCC(=O)Nc4ccc(N5Cc6ccc(O)cc6OC5=O)cc4)c3C2=O)C(=O)N1 (centres undefined) showed an Emax [3] of 55%.

Molecule CC(C)Nc1cc(C(=O)N[C@H]2CC[C@@H](C(=O)NCCCCCNC(=O)COc3cccc4c3C(=O)N(C3CCC(=O)NC3=O)C4=O)CC2)nc(-n2ccc3cc(C#N)cnc32)c1 (some centres undefined) has a DC50 [16] of 190 nM.
